Patent publication US20160376659A1, “Breast Cancer Biomarker” (The University of Manchester, priority 2015, published 2016)
Entries after “also recorded” stand apart in the source; their conditions may differ.

Legend:
[1] = test system: Early (HBC×34) and metastatic (BB3RC31) BC estrogen-dependent patient-derived xenograft tumors; test: 14 day in vivo window treatment of ER+ PDX tumors: tumor growth, Ki67, ER, PR; design: species or system mice; settings: for proliferation marker Ki67 / tumor growth: 14 days, tamoxifen 10 mg/kg/day oral, fulvestrant 200 mg/kg/week s.c., RO4929097 3 mg/kg/day oral; for ER and PR protein expression levels: PDX tumors, 14 days in vivo, immunohistochemistry
Protocol: (§1) Early (HBC×34) and metastatic (BB3RC31) BC estrogen-dependent PDXs were administered with 8 ug/ml of 17-beta estradiol in drinking water at all times and were treated with drugs when tumors reached 200-300 mm^3. Experiments were performed using PDX tumors between passages 5 and 8. Animal weight and tumor size was measured bi-dimensionally using callipers twice a week. The HBC×34 model was kindly provided by Dr Elisabetta Marangoni from Institute Curie, Paris (Cottu et al., 2012).
(§2) Tamoxifen citrate (Sigma, T9262, 10 mg/kg/day) and RO4929097 (Cellagen Technology, 3 mg/kg/day) were administered by oral gavage (0.1 ml/dose) on a five day from seven basis (weekends excluded) for fourteen days. Tamoxifen citrate and RO4929097 were prepared in 1% carboxymethylcellulose (Sigma, C9481) dissolved in distilled water. Fulvestrant (kindly provided by Astrazeneca, 200 mg/kg/week) was administered by subcutaneous injection (0.1 ml/dose) on a weekly basis for fourteen days. The HBC×22 and HBC×34 tamoxifen-resistant PDXs have been established by our collaborators in the Curie Institute (Cottu el al, 2014) and were treated for fourteen days in the presence or absence of the gamma-secretase inhibitor RO4929097 (10 mg/kg/day, oral gavage). Xenografts were collected in ice cold DMEM media for live cell assays, histological analysis and RNA and protein extraction. Patient-derived xenograft single cell suspension was obtained using a collagenase-hyaluronidase mixture for digestion (Stem Cell Technologies).
Tissue microarrays (TMAs) were constructed from all formalin fixed and paraffin embedded tissue. 3×1 mm cores were taken per tissue block, and TMAs were cut into 3 μm thick sections and analysed by immunohistochemistry. Antibodies utilised were anti-ERα (Thermo, SP1), anti-PgR (Dako, M3569), anti-Ki67 (Dako, M7240), anti-HER2 (Vector Laboratories, VP-C380), anti-Hes1 (Abcam, ab108937) and anti-ALDH1 (BD Biosciences, 611195). Antigen retrieval was performed either using Target Retrieval Solution pH9 (Dako S2367, for ER, PR, Ki67 and ALDH1), Target Retrieval Solution pH6 (Dako S1699, for Hes1) or in 10 mM Citrate buffer (for HER2) in a […] water bath for 25 mins. All antibodies were detected using Dako EnVision Detection System Peroxidase/DAB, Rabbit/Mouse (Dako, K5007) and sections were counterstained with haematoxylin. Staining was quantified using Definiens Tissue Studio software. The percentage of positive epithelial cells was scored on 3 cores per tissue sample. For ER immunocytochemistry, approximately 50.000 cells were FACS sorted and then cytospun for 5 min at 80 G on poly-lysine coated slides. Cells were fixed with 4% paraformaldehyde (5 min), permeabilised with acetone (4 min) and methanol (2 min), and then blocked for 10 min with Peroxidase Blocking Reagent (Dako, S2001) and further 10 min with 3% goat serum before incubation with primary antibody. ER was then detected as described above for immunohistochemistry.

[2] = test system: Early (HBC×34) and metastatic (BB3RC31) PDX tumors; test: BCSC activity (MFE, ALDEFLUOR) of ER+ PDX tumors treated in vivo; design: species or system mice; settings: 14 days; for BCSC activity measured by MFE and ALDH enzymatic activity: tamoxifen 10 mg/kg/day oral, fulvestrant 200 mg/kg/week s.c.
Protocol: as §1
as §2, with “Xenografts were collected in ice cold DMEM media for live cell assays, histological analysis and RNA and protein extraction. Patient-derived xenograft single cell suspension was obtained using a collagenase-hyaluronidase mixture for digestion (Stem Cell Technologies).” left out
Single cell suspensions of freshly isolated ER+ primary and metastatic patient-derived samples were cultured for 7-9 days (primary cells) in mammosphere colony assays in the presence of ethanol, 10^−6 M 4-hydroxy-tamoxifen or 10^−7 M fulvestrant. […] Mammosphere formation efficiency (MFE) was calculated by dividing the number of mammospheres formed (≧50 μm) by the original number of single cells seeded (500 cells/cm^2 for primary cells and 200 cells/cm^2 for cell lines) and is expressed as fold change normalised to control or as the mean percentage of MFE (Shaw et al., 2012).
Dissociated single cells were suspended in Aldefluor assay buffer containing an ALDH substrate, bodipyaminoacetaldehyde (BAAA) at […], and incubated for 45 min at 37° C. […] Data were acquired on a LSR II (BD) flow cytometer and analysed using the BD FACSDiva™ software.

[3] = test system: MCF-7, T47D and ZR-75-1 cells; test: BCSC activity (MFE, ALDH-positive cells) of pre-treated ER+ cell lines; format: cell-based, human; settings: for ALDH-positive cells / mammosphere-forming activity: 6 days in vitro pre-treatment, 10^−6 M tamoxifen, 10^−7 M fulvestrant
Protocol: Single cell suspensions of freshly isolated ER+ primary and metastatic patient-derived samples were cultured for 7-9 days (primary cells) in mammosphere colony assays in the presence of ethanol, 10^−6 M 4-hydroxy-tamoxifen or 10^−7 M fulvestrant. Primary mammospheres were dissociated and replated in secondary mammosphere suspension culture for a further 7-9 days to measure self-renewal. Patient-derived xenograft cells were cultured for 7-10 days. For cell lines, cells were pre-treated in adherence and then cultured for 5 days in mammosphere culture. Mammosphere formation efficiency (MFE) was calculated by dividing the number of mammospheres formed (≧50 μm) by the original number of single cells seeded (500 cells/cm^2 for primary cells and 200 cells/cm^2 for cell lines) and is expressed as fold change normalised to control or as the mean percentage of MFE (Shaw et al., 2012).
Dissociated single cells were suspended in Aldefluor assay buffer containing an ALDH substrate, bodipyaminoacetaldehyde (BAAA) at […], and incubated for 45 min at 37° C. To distinguish between ALDH-positive and -negative cells, a fraction of cells was incubated under identical conditions in the presence of a 2-fold molar excess of the ALDH inhibitor, diethylaminobenzaldehyde (DEAB). Mouse cells were excluded from the FACS analysis with anti-mouse MHC Class I (H-2Kd) antibody conjugated with Pacific Blue (BioLegend, 116616). 7-aminoactinomycin D (7AAD, BD) was added for dead cell exclusion. Data were acquired on a LSR II (BD) flow cytometer and analysed using the BD FACSDiva™ software.
MCF7, T47D and ZR-75-1 cell lines were purchased from American Tissue Culture Collection (ATCC) and cultured in DMEM/F-12, GlutaMAX (Gibco) with 10% FBS (Gibco). Cells were treated for 3 days or 6 days with ethanol (control), 10^-6M 4-OH-tamoxifen or 10^−7M fulvestrant and/or with 10 μM of gamma-secretase inhibitor RO4929097 (Cellagen Technology) or DMSO (control).

[4] = test system: metastatic (BB3RC31) PDX cells; test: Secondary tumor formation of cells from PDX tumors treated in vivo; design: species or system mice; settings: 90 days post-implantation; for tumor-initiating capacity in secondary mouse hosts: cells from PDX tumors treated in vivo
Protocol: as §2
To determine tumor initiation capacity of MCF-7 cells or metastatic (BB3RC31) PDX cells treated in vitro or in vivo, respectively, Nude or NSG mice were injected subcutaneously with cells in mammosphere media mixed 1:1 with Matrigel. 8 μg/ml of 17-beta estradiol was administered in drinking water or 90-day slow release estrogen pellets were implanted sub-cutaneously into mice two days before cell injection (0.72 mg, Innovative Research of America). Serial limiting dilution implantation of MCF-7 cells (10.000, 1.000, 100, 10 cells) and the Extreme Limiting Dilution Analysis (ELDA) software (The Walter and Eliza Hall Institute of Medical Research) were used to perform calculations (95% CI) of tumor initiation. Positive tumor growth was assessed at day 60 or 90 after cell injection by determining the mice bearing a tumor greater than 100 mm^3 and is represented as mice positive for growth/mice tested (n=4 per condition in all experiments). p values were calculated with Chi-squared test.

CC(C)(C(=O)NCC(F)(F)C(F)(F)F)C(=O)N[C@@H]1C(=O)Nc2ccccc2-c2ccccc21 [RO4929097]
proliferation marker Ki67 [1]: no impact | tumor growth [1]: no impact | ER and PR protein expression levels [1]: not modified | endocrine stimulated BCSC activity (MFE and Aldefluor activity) ([2]; RO4929097 3 mg/kg/day oral with tamoxifen or fulvestrant): significantly inhibited | BCSC activity as assayed by MFE and ALDH-positive cells ([3]; 3 days tamoxifen or fulvestrant concomitantly with RO4929097 10 μM): reduced | tumor-initiating capacity in secondary mouse hosts [4]: significantly reduced | stimulation of tumorigenicity following in vivo tamoxifen and fulvestrant treatment ([4]; combination with RO4929097): completely reversed

C[C@]12CC[C@@H]3c4ccc(O)cc4C[C@@H](CCCCCCCCC[S+]([O-])CCCC(F)(F)C(F)(F)F)[C@H]3[C@@H]1CC[C@@H]2O (stereo partly drawn) [fulvestrant]
proliferation marker Ki67 [1]: decrease; also recorded: reduced | tumor growth [1]: reduced | ER and PR protein expression levels [1]: reduced | BCSC activity measured by MFE and ALDH enzymatic activity [2]: paradoxical increase; also recorded: increasing | ALDH-positive cells [3]: enriched | mammosphere-forming activity [3]: enriched | tumor-initiating capacity in secondary mouse hosts [4]: stimulation of tumorigenicity

CC/C(=C(\c1ccccc1)c1ccc(OCCN(C)C)cc1)c1ccccc1 [tamoxifen, (Z)-2-[4-(1,2-diphenylbut-1-enyl)phenoxy]-N,N-dimethylethanamine]
proliferation marker Ki67 [1]: decrease; also recorded: reduced | tumor growth [1]: reduced | PR expression ([1]; HBC×34 (early BC) PDX): down-regulated | BCSC activity measured by MFE and ALDH enzymatic activity [2]: paradoxical increase; also recorded: increasing | ALDH-positive cells [3]: enriched | mammosphere-forming activity [3]: enriched | tumor-initiating capacity in secondary mouse hosts [4]: stimulation of tumorigenicity
